US8846951B2 (AbbVie Inc., priority 2009, dated 2014)
“Also recorded” adds a separate entry of the source.

What was measured:
SHR pups = test: 5-trial inhibitory avoidance/impulsivity model in pups of spontaneously hypertensive rat; type: in vivo; conditions: sc 1, 3 and 10 mg/kg, acute, compared to vehicle
Source text: (ix) 5-Trial Inhibitory Avoidance/Impulsivity Model in the Pups of Spontaneously Hypertensive Rat
However, the adult rats have spontaneous hypertension which may confound behavioral assessment. The juvenile SHRs were used in the current study since these pups show similar behavioral deficits while having not developed hypertension. The aim was to investigate the efficacy of 5-HT2c agonists in SHR pups in an inhibitory avoidance model, as indication of enhancement of inhibitory control/or anti-impulsivity.
SHR pups at postnatal day 21-28 were sc dosed with either vehicle or Example 115 (1, 3, and 10 mg/kg; dissolved in tartaric acid/PH4-6) 30 minutes prior to the test. Upon testing initiation, pups were placed into the light side of a computer controlling 2-chambered compartment. The latency to enter the adjoining dark chamber was recorded, and an inescapable footshock (0.1 mA, 1 second duration) was presented to the pup. The pup was removed, placed back into the home cage for approximately 1 minute, and the process repeated for a total of 5 trials. The dependent variable used for data analysis was the total transfer latency of trial 2 to trial 5.

[1] = tested on: AMP- or PCP-induced hyperactivity; test: Psychostimulant (AMP or PCP)-induced hyperlocomotion in mice; type: in vivo, mouse
Source text: (x) Assessment of Effects on Psychostimulant-Induced Hyperlocomotion in Mice
In both humans and experimental animals amphetamine (AMP) profoundly affects motor activity, sensorimotor function, sleep, attention, aggressive and sexual behaviors, learning and memory, operant behaviors, appetite and food intake. In addition, amphetamine induces psychotic reactions in normal individuals and exacerbates symptoms of schizophrenia in patients. In experimental animals several distinct behaviors are considered to be correlates of amphetamine psychosis. For example, amphetamine-induced hyperactivity in rodents is believed to model the psychotic symptoms of schizophrenia. Reversal of these behaviors is used to predict potential antipsychotic activity of drugs in pre-clinical studies.
In humans, phencyclidine (PCP) is known to produce a syndrome of behavioral effects which have many characteristics in common with schizophrenia. Therefore, antagonism of PCP effects might be evidence for antipsychotic efficacy of a compound.
Male NMRI mice (5-week old, Janvier, France) or C57BL/6J mice (6-week old, Janvier, France) were group housed and allowed ad-libitum access to food and water. A 12 hour light/dark cycle was imposed with lights-on period between 0530 and 1730 hours. All testing occurred between 700 and 1300 hours. All procedures were approved by Abbott Institutional Animal Care and Use Committee (USA) or Animal Welfare Officer (Germany) and were conducted in accordance with the National Institutes of Health Guide for Care and Use of Laboratory Animals guidelines and applicable national laws in the facilities accredited by the Association for the Assessment and Accreditation of Laboratory Animal Care.
On the day of experiment, animals were brought from the animal facility into the experimental room and were allowed to acclimatize for at least 30 minutes. Animals were then placed in the test cages for a habituation period of 60 minutes. The animals were then injected ip with the test compound and returned to the test cage. 30 Minutes later the mice were injected with d-amphetamine (2.0 mg/kg, AMP, Sigma, #A5880, sc) or phencyclidine (2.0 mg/kg, PCP, Sigma, #P3029, sc) Sigma, and returned to the test cages for 90 minutes. Each treatment group consisted of 8-10 animals. The data was acquired by Cage rack Photobeam system (SDI, San Diego Instruments, CA). The analyzed data were: fine movements, ambulations and total movements (fine+ambulations). Data was subjected to one- or two-way distribution-free ANOVA followed by Dunnett's and Tukey's post hoc tests.

[2] = tested on: conditioned avoidance response (CAR) behavior; test: Conditioned avoidance responding in rats; type: in vivo, rat; conditions: male Wistar rats
Method: The fact that antipsychotics have the unique ability to selectively suppress CAR behavior, made the CAR test a useful tool for the screening of new, potentially antipsychotic compounds. […] Animals Male Wistar rats (9-11 weeks old, Charles River, Germany) were pair-housed and allowed ad-libitum access to food and water. A 12-hour light/dark cycle was imposed with lights-on period between 0530 and 1730 hours. All testing occurred between 700 and 1300 hours. All procedures were approved by Abbott Institutional Animal Care and Use Committee (USA) or Animal Welfare Officer (Germany) and were conducted in accordance with the National Institutes of Health Guide for Care and Use of Laboratory Animals guidelines and applicable national laws in the facilities accredited by the Association for the Assessment and Accreditation of Laboratory Animal Care. Methods Wistar rats are exposed to a conditioned stimulus CS (a 2.9-kHz tone of 10 second duration), which is a signal for the animal that it must move into the other chamber in order to avoid an immediately ensuing footshock US (0.5 mA, 10 second, tone continues during shock presentation). Once the shock has begun, the animal can still escape it by moving to the other chamber. Each session is limited to a maximum of 40 trials (intertrial interval 10-90 seconds). The animals generally learn quickly to change chambers upon the conditioned stimulus and thus avoid further shocks. Scored are: • Avoided responses=crossings into other compartment within 10 seconds of tone presentation; • Escaped responses=crossings between 10-20 seconds of tone presentation; • Failures=crossings after cessation of tone-shock presentation or no crossing. […] At the test sessions (=CS-shock pairings), animals are pre-treated with a test drug or vehicle 30 minutes before commencement of the session.

spontaneous activity ([1]; after ip test compound, before psychostimulant): without affecting spontaneous activity
SMILES: CN1C[C@@H]2CNC(=O)c3cc(-c4ccc(F)cc4)ccc3[C@H]2C1 [Example 115, (3aS,10bS)-8-(4-Fluorophenyl)-2-methyl-1,2,3,3a,4,5-hexahydrobenzo[e]pyrrolo[3,4-c]azepin-6(10bH)-one]
total transfer latency of trial 2 to trial 5 (SHR pups): dose-dependent increase in transfer latencies; also recorded: dose-dependent improvement in 5-trial inhibitory avoidance scores | AMP-induced hyperactivity ([1]; test compound ip 30 min before d-amphetamine 2.0 mg/kg sc): attenuated AMP-induced hyperactivity in mice significantly and in a dose dependent manner; also recorded: attenuating the affect of d-amphetamine (AMP) | conditioned avoidance behavior (avoided responses) ([2]; acute, 30 minutes before session): significantly suppressed conditioned avoidance behavior | number of failures ([2]; indicator of sedation or extrapyramidal side effects): without affecting the number of failures
